Read-outs that look alike come from different tables or passages of the source.
Columns and labels:
MOLM-13 [1] = assay: Secondary dose-response HTS, Cell Titer Glo; assay type: cell-based, human
MV4-11 [2] = assay: Secondary dose-response HTS, Cell Titer Glo; assay type: cell-based, human
CHRF288-11 [3] = assay: Secondary dose-response HTS, Cell Titer Glo; assay type: cell-based, human; conditions: for EC50: Homo sapiens, HTS, read-out: average effective concentration, CHRF288-11
CMK [4] = assay: Secondary dose-response HTS, Cell Titer Glo; assay type: cell-based, human; conditions: CMK; for EC50: read-out: average effective concentration, CMK
M07e [5] = assay: Secondary dose-response HTS, Cell Titer Glo; assay type: cell-based, human; conditions: secondary high-throughput screen; for EC50: read-out: average effective concentration, M07e
ML2 = assay: Secondary dose-response HTS, Cell Titer Glo; assay type: cell-based, human; conditions: for EC50: Homo sapiens
U937 [6] = assay: Secondary dose-response HTS, Cell Titer Glo; assay type: cell-based, human; conditions: secondary high-throughput screen, U937; for EC50: Homo sapiens, U-937, read-out: average effective concentration, U937
CMS = assay: Secondary dose-response HTS, Cell Titer Glo; assay type: cell-based, human; conditions: Homo sapiens, HTS, read-out: average effective concentration, CMS
MOLM-13 [7] = assay: cells; set-up: species or system AML cell lines (8); Secondary HTS, 10-point dose-response in triplicate, Cell Titer Glo viability, four-parameter fit EC50; conditions: Homo sapiens, MOLM-13, 72 h, read-out: MOLM-13
MV4-11 [8] = assay: cells; set-up: species or system AML cell lines (8); Secondary HTS, 10-point dose-response in triplicate, Cell Titer Glo viability, four-parameter fit EC50; conditions: Homo sapiens, MV4-11, 72 h, read-out: MV4-11
CMK [9] = assay: cells; set-up: species or system AML cell lines (8); Secondary HTS, 10-point dose-response in triplicate, Cell Titer Glo viability, four-parameter fit EC50; conditions: Homo sapiens, CMK, 72 h, read-out: CMK
M07e [10] = assay: cells; set-up: species or system AML cell lines (8); Secondary HTS, 10-point dose-response in triplicate, Cell Titer Glo viability, four-parameter fit EC50; conditions: M-07e, 72 h, read-out: M07e
CHRF288-11 [11] = assay: cells; set-up: species or system AML cell lines (8); Secondary HTS, 10-point dose-response in triplicate, Cell Titer Glo viability, four-parameter fit EC50; conditions: 72 h, read-out: CHRF288-11
U937 [12] = assay: cells; set-up: species or system AML cell lines (8); Secondary HTS, 10-point dose-response in triplicate, Cell Titer Glo viability, four-parameter fit EC50; conditions: Homo sapiens, U-937, 72 h, read-out: U937
[13] = secondary high-throughput screen, MOLM-13
[14] = secondary high-throughput screen, MV4-11
[15] = secondary high-throughput screen, CHRF288-11
[16] = secondary high-throughput screen
[17] = secondary high-throughput screen, ML-2
[18] = secondary high-throughput screen, CMS
[19] = secondary high-throughput screen, ML-2, read-out: average effective concentration, ML-2
[20] = Homo sapiens, secondary high-throughput screen, MOLM-13, read-out: average effective concentration, MOLM-13

In the case of CCOC(=O)C1=C(C)NC2=C(C(=O)CC(C)(C)C2)C1c1ccc(-c2ccccc2)cc1 (stereo not drawn) [ITD-1], the “average effective concentration, MOLM-13” value (MOLM-13 [1]; [13]) is reported as “Inactive”, the “average effective concentration, MV4-11” value (MV4-11 [2]; [14]) is reported as “Inactive” and the “average effective concentration, CHRF288-11” value (CHRF288-11 [3]; [15]) is reported as “Inactive”. For the same compound, the “average effective concentration, CMK” value (CMK [4]; [16]) was “Inactive”, the “average effective concentration, M07e” value (M07e [5]; M07e) was “Inactive” and the “average effective concentration, ML-2” value (ML2; [17]) was “Inactive”. The “average effective concentration, U937” value (U937 [6]) was “Inactive”.
Cn1cc(C(=O)Cc2ccccc2)cc1/C=C/C(=O)NO [MC 1293] was tested, and the “average effective concentration, MV4-11” value (MV4-11 [2]; [14]) was “Inactive”, the “average effective concentration, CHRF288-11” value (CHRF288-11 [3]; [15]) was “Inactive” and the EC50 (CMK [4]; [16]) was 8700 nM. For the same compound, the EC50 (M07e [5]; M07e) was 450 nM and the “average effective concentration, U937” value (U937 [6]) was “Inactive”.
Compound OC(c1cc(C(F)(F)F)nc2c(C(F)(F)F)cccc12)C1CCCCN1 (stereo not drawn) [MEFLOQUINE] has an EC50 (CHRF288-11 [3]; [15]) of over 10000 nM, an EC50 (CMS; [18]) of over 10000 nM and an EC50 (ML2; [19]) of over 10000 nM. The EC50 (U937 [6]) was over 10000 nM, the EC50 (MOLM-13 [7]) was over 10000 nM and the EC50 (MV4-11 [8]) was over 10000 nM. The EC50 (CMK [9]) was over 10000 nM and the EC50 (M07e [10]) was over 10000 nM.
In the case of CCNC(=O)c1cc2c(-c3cc(OCCN4CCCC4)c(Cl)cc3Cl)nc(N)nc2s1 [NVP-BEP800], the “average effective concentration, M07e” value (M07e [5]; […]) is reported as “Inactive”.
For COc1ccc(Cn2ccc3ccc(C(=O)NO)cc32)cc1 [PCI 34051], the “average effective concentration, MOLM-13” value (MOLM-13 [1]; [13]) was “Inactive”, the “average effective concentration, MV4-11” value (MV4-11 [2]; [14]) was “Inactive” and the “average effective concentration, CHRF288-11” value (CHRF288-11 [3]; [15]) was “Inactive”. The “average effective concentration, CMK” value (CMK [4]; [16]) was “Inactive”, the “average effective concentration, M07e” value (M07e [5]; […]) was “Inactive” and the “average effective concentration, ML-2” value (ML2; [17]) was “Inactive”. The “average effective concentration, U937” value (U937 [6]) was “Inactive”.
COc1ccc(-c2cc3c(C)nc(N)nc3n([C@H]3CC[C@H](OCCO)CC3)c2=O)cn1 [PF-04691502] was tested, and the “average effective concentration, M07e” value (M07e [5]; M07e) was “Inactive”.
COc1cc(F)c(F)c(Nc2ccc(I)cc2F)c1NS(=O)(=O)C1(C[C@H](O)CO)CC1 [REFAMETINIB] was tested, and the EC50 (MOLM-13 [1]; [20]) was 1200 nM, the EC50 (CMK [4]; Homo sapiens, secondary high-throughput screen) was 8600 nM and the EC50 (CMS; [18]) was over 10000 nM. The EC50 (ML2; [19]) was 1 nM, the EC50 (MV4-11 [8]) was over 10000 nM and the EC50 (CHRF288-11 [11]) was over 10000 nM. It also gave an EC50 (M07e [10]) of over 10000 nM and an EC50 (U937 [12]) of over 10000 nM.
For Cn1cc(-c2cnn3c(N)c(Br)c([C@@H]4CCCNC4)nc23)cn1 [SCH-900776], the EC50 (MOLM-13 [1]; Homo sapiens, MOLM-13, read-out: average effective concentration, MOLM-13) was 51 nM, the EC50 (MV4-11 [2]; Homo sapiens, MV4-11, read-out: average effective concentration, MV4-11) was 83 nM and the EC50 (CHRF288-11 [3]) was 470 nM. It also gave an EC50 (CMK [4]; Homo sapiens) of 130 nM, an EC50 (CMS) of over 10000 nM and an EC50 (ML2; ML-2, read-out: average effective concentration, ML-2) of 53 nM. It also gave an EC50 (M07e [10]) of over 10000 nM and an EC50 (U937 [12]) of over 10000 nM.
In the case of CC(=O)Nc1ccc(NC(=S)NC(=O)c2ccc(C(C)(C)C)cc2)cc1 [TENOVIN-1], the “average effective concentration, MOLM-13” value (MOLM-13 [1]; [13]) is reported as “Inactive”, the “average effective concentration, MV4-11” value (MV4-11 [2]; [14]) is reported as “Inactive” and the “average effective concentration, CHRF288-11” value (CHRF288-11 [3]; [15]) is reported as “Inactive”. For the same compound, the “average effective concentration, CMK” value (CMK [4]; [16]) was “Inactive”, the “average effective concentration, M07e” value (M07e [5]; M07e) was “Inactive” and the “average effective concentration, ML-2” value (ML2; [17]) was “Inactive”.
In the case of O=c1[nH]c2sccc2c2ccccc12 [TIQ-A], the EC50 (MOLM-13 [1]; secondary high-throughput screen, MOLM-13, read-out: average effective concentration, MOLM-13) is reported as 4200 nM, the EC50 (MV4-11 [2]; secondary high-throughput screen, MV4-11, read-out: average effective concentration, MV4-11) is reported as 3500 nM and the “average effective concentration, CHRF288-11” value (CHRF288-11 [3]; [15]) is reported as “Inactive”. The “average effective concentration, CMK” value (CMK [4]; [16]) was “Inactive”, the EC50 (M07e [5]; M07e) was 7000 nM and the “average effective concentration, ML-2” value (ML2; [17]) was “Inactive”. For the same compound, the “average effective concentration, U937” value (U937 [6]) was “Inactive”.
Work on CCC1=C[C@@H]2CN(C1)Cc1c([nH]c3ccccc13)[C@@](C(=O)OC)(c1cc3c(cc1OC)N(C)[C@H]1[C@@](O)(C(=O)OC)[C@H](OC(C)=O)[C@]4(CC)C=CCN5CC[C@]31[C@@H]54)C2 [VINORELBINE] yielded an EC50 (MOLM-13 [1]; [20]) of 29 nM, an EC50 (MV4-11 [2]; Homo sapiens, secondary high-throughput screen, MV4-11, read-out: average effective concentration, MV4-11) of 32 nM and an EC50 (CHRF288-11 [3]; [15]) of 2100 nM. The EC50 (CMS) was 240 nM, the EC50 (ML2; [19]) was 40 nM and the EC50 (U937 [6]) was 32 nM. It also gave an EC50 (CMK [9]) of over 10000 nM and an EC50 (M07e [10]) of over 10000 nM.
With CCOc1cc(N2CCC(O)CC2)ccc1Nc1ncc2c(n1)N(C)c1ccccc1C(=O)N2C [XMD 8-92] the “average effective concentration, CHRF288-11” value (CHRF288-11 [3]; [15]) was “Inactive”, the “average effective concentration, M07e” value (M07e [5]; M07e) was “Inactive” and the “average effective concentration, ML-2” value (ML2; [17]) was “Inactive”.
